Experimental data as given in EP0038567A1, “Deazapurine nucleoside, formulations thereof, and use thereof in therapy” (THE WELLCOME FOUNDATION LIMITED, priority 1980, dated 1981).
Read-outs that look alike come from different tables or passages of the source.

Assays:
[1] = tested on: lipoxygenase; test: Prostaglandin metabolism in vitro, lipoxygenase pathway; assay type: biochemical
[2] = tested on: immune response; details: earlier disclosed activity (UK Patent Application No. 40447/78); cited from earlier work
[3] = Analgesic activity; assay type: in vivo; details: per se
[4] = tested on: carrageenan pleurisy (3 hour pleural exudate volume); test: Carrageenan Pleurisy Assay (CPA), acute anti-inflammatory activity, oral dosing; assay type: in vivo; details: for ED50: po, dose reducing the 3 hour exudate volume by 50%, p.o., 5 animals per group, read-out: ED50 3 hr. vol. p.o.
Procedure: Following the procedure previously described by Vinegar et al. in Proc. Soc. Exp. Biol. Med., 143, 711, (1973) as recently modified /Vinegar et al., Eur. J. Rheum. Inflamm., 1, 204 (1978)/ the acute anti-inflammatory activity of 3-deazaadenosine was compared with that of known anti-inflammatory drugs. The average 3 hour exudate volume for each drug treated group was determined and the % inhibition relative to solvent-fed control animals calculated, the ED 50 (mg/kg body weight) being the dose required to reduce the 3 hour exudate volume by 50%. There were 5 animals in each drug-treated group and the control group.
By means of the Carrageenan Pleurisy Assay of Example 1 the duration of action of the tests compounds after a single oral pretreating dose was determined. For 3-deazaadenosine the effect lasted for 14.9 hours at 6 mg/kg (p.o.) whilst for aspirin (150 mg/kg p.o.) and acetaminophen (220 mg/kg p.o.) the effect lasted for […] and 2 hours respectively. This value represents the time (hours) of drug administration prior to the injection of carrageenan in which the inhibition of the 3 hour pleural exudate volume declined to 40%.

[5] = Antipyretic activity; details: in vivo
[6] = Water solubility; assay type: physicochemical
[7] = Therapeutic index; details: in vivo
[8] = tested on: carrageenan pleurisy (3 hr. exudate volume); test: Carrageenan Pleurisy Assay (CPA), local (intra-pleural) anti-inflammatory activity; assay type: in vivo; details: read-out: ED50 3 hr. vol. local (intra-pleural)
Description: Following the procedure described by Vinegar et al. /Eur. J. Rheum. […] There were 5 animals in each drug-treated group and the control group.

[9] = tested on: cyclooxygenase; test: Prostaglandin metabolism in vitro, cyclooxygenase pathway; assay type: biochemical
[10] = tested on: adjuvant arthritis; test: Adjuvant arthritis, developing and established, arthritic joint scores; assay type: in vivo; details: Rattus norvegicus, rats; for ED25: feed or water, 1008 h, drug in diet from day 21 to 42; for ED50: po, 384 h, drug in diet from day 1 to day 16
Procedure: The effect of 3-deazaadenosine in rats againt both developing and established adjuvant arthritis was determined by the method described by R. Vinegar et al. Journal of Immunopharmacology. 1, 483, (I979). The scoring procedure of A.L.F. Currey and M. Ziff, J. Exp. Med., 121, 185 (1968) was used to assess the arthritic joint scores of rats. There were 5 animals in each drug-treated group. For developing adjuvant arthritis the drugs were administered in the diet from day 1 to day 16. For established adjuvant arthritis the drugs were administered from day 21 to 42.

[11] = Half life; details: in vivo
[12] = earlier disclosed activity (US Patent No. 4 148 888); cited from earlier work
[13] = tested on: liver; test: Liver damage in animal models; assay type: in vivo; details: animal models used

SMILES: Nc1nccc2c1ncn2[C@@H]1O[C@H](CO)[C@@H](O)[C@H]1O [3-Deazaadenosine, 4-amino-1-β-D-ribofuranosyl-1H-imidazo-[4,5-c]-pyridine]
- inhibition of prostaglandin metabolism, lipoxygenase pathway [1]: does not inhibit
- dose required for immunesuppression [2]: more than 30 mg/kg
- analgesic activity [3]: no analgesic activity
- duration of action ([4]; general statement in the description, no dose given): about 15 hours
- ED50 [4]: 2.8 ± 0.65 mg/kg
- duration of action ([4]; single oral pretreating dose 6 mg/kg (p.o.), time before carrageenan at which inhibition of 3 hour pleural exudate volume declined to 40%): 14.9 h
- antipyretic activity [5]: not antipyretic
- water solubility [6]: high water solubility
- therapeutic index [7]: high therapeutic index
- ED50 ([8]; local (intra-pleural) administration, 5 animals per group): 0.05 mg/kg
- inhibition of prostaglandin metabolism, cyclooxygenase pathway [9]: does not inhibit
- ED25 [10]: ~18 mg/kg/day
- ED50 [10]: 8 ± 2.8 mg/kg
- half life [11]: short half life
- dose required for antiviral activity [12]: 100-200 mg/kg per day
- liver damage [13]: does not cause liver damage

SMILES: CC(=O)Oc1ccccc1C(=O)O [Aspirin]
- ED50 [4]: 28 ± 3.2 mg/kg
- duration of action ([4]; single oral pretreating dose 150 mg/kg p.o., time before carrageenan at which inhibition of 3 hour pleural exudate volume declined to 40%): 35 h
- ED50 [8]: 0.04 mg/kg
- ED25 [10]: 150 mg/kg/day
- ED50 [10]: 150 ± 53.1 mg/kg

SMILES: C[C@]12CCC(=O)C=C1CC[C@@H]1[C@@H]2[C@@H](O)C[C@@]2(C)[C@H]1CC[C@]2(O)C(=O)CO [Hydrocortisone]
- ED50 [4]: 14 ± 10.2 mg/kg
- ED50 [8]: 0.1 mg/kg

SMILES: C[C@]12C=CC(=O)C=C1CC[C@@H]1[C@@H]2[C@@H](O)C[C@@]2(C)[C@H]1CC[C@]2(O)C(=O)CO [Prednisolone]
- ED50 [4]: 3 ± 0.5 mg/kg
- ED25 [10]: 0.2 mg/kg/day
- ED50 [10]: 1 ± 0.7 mg/kg

SMILES: CC(=O)Nc1ccc(O)cc1 [acetaminophen]
- duration of action ([4]; single oral pretreating dose 220 mg/kg p.o., time before carrageenan at which inhibition of 3 hour pleural exudate volume declined to 40%): 2 h
